Our source for the IC50 values is patent US20090304692A1, “TRIAZINE COMPOUNDS AS PI3 KINASE AND MTOR INHIBITORS” (Wyeth, priority 2008, published 2009).

Test [1] concerns the target PI3K-γ (Homo sapiens, UniProt P48736). The test is described as follows: PI3K-gamma fluorescence polarization assay. (Polarisation of emitted light reports the rotation of a fluorescent probe.)
Test [2] addresses Human mTOR (FLAG-TOR) (Homo sapiens, UniProt P42345). The test is described as follows: mTOR kinase assay (DELFIA format, purified enzyme). As to conditions: read-out: IC50 mTOR. The test is classed as biochemical.
Test [3] has as its system human prostate LNCap tumor cell line. The test is described as follows: In vitro cell culture growth assay (MTS), LNCap. As to conditions: Homo sapiens, LNCaP, 72 h, read-out: IC50 LNCap.
In test [4] the target is PI3K-α (Homo sapiens, UniProt P42336). Put plainly: PI3K-alpha fluorescence polarization assay.

Where two headings read alike, the source gives them in different places.

Chain of PI3K-α (P42336 whole entry, species assumed): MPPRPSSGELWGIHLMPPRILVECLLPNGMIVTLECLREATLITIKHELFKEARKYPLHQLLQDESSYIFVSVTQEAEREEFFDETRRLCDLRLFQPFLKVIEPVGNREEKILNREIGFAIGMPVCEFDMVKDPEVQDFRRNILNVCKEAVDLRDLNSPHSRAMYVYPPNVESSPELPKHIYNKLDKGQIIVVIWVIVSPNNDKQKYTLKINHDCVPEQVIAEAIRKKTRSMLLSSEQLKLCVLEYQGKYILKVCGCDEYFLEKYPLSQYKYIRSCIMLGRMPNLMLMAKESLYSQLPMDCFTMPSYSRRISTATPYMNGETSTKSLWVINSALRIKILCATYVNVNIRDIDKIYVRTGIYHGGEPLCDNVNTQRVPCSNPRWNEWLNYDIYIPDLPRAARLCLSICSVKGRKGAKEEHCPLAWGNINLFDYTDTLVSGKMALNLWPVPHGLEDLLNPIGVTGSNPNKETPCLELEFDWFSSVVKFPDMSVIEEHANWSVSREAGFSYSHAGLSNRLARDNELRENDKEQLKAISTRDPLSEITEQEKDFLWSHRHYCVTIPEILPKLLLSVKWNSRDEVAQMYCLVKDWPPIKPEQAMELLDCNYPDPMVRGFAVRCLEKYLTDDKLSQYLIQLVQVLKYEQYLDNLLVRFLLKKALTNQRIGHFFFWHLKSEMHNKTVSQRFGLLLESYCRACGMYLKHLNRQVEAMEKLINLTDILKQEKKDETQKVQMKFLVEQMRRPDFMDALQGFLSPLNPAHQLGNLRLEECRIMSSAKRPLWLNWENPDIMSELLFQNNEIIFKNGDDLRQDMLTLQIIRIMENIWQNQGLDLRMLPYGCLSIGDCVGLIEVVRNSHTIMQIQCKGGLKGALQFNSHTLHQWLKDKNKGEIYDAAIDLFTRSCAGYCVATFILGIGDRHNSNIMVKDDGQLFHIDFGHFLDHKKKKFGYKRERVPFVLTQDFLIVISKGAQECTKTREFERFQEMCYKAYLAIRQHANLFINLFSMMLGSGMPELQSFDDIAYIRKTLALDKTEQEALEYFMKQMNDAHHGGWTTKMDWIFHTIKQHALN
Chain of PI3K-α (P27986 whole entry partner, species assumed): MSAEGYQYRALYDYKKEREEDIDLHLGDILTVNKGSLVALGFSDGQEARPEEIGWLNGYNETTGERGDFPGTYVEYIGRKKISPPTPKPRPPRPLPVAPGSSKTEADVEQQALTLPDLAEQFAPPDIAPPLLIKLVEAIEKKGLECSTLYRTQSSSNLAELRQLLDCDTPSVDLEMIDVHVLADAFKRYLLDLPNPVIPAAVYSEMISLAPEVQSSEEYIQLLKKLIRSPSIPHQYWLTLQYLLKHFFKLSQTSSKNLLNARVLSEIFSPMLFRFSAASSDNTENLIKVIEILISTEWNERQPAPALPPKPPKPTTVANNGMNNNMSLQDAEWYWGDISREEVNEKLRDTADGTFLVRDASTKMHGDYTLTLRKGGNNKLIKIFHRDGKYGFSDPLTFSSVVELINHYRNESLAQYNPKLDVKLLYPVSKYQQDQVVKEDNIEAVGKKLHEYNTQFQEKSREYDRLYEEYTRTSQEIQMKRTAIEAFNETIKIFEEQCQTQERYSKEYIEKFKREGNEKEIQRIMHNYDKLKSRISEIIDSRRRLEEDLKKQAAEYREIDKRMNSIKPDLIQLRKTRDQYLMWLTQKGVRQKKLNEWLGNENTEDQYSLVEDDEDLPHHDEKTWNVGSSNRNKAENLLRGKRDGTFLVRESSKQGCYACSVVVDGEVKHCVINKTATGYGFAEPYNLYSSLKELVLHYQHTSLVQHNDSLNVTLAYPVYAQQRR
Chain of Human mTOR (FLAG-TOR) (P42345 1360-2549 limits assumed): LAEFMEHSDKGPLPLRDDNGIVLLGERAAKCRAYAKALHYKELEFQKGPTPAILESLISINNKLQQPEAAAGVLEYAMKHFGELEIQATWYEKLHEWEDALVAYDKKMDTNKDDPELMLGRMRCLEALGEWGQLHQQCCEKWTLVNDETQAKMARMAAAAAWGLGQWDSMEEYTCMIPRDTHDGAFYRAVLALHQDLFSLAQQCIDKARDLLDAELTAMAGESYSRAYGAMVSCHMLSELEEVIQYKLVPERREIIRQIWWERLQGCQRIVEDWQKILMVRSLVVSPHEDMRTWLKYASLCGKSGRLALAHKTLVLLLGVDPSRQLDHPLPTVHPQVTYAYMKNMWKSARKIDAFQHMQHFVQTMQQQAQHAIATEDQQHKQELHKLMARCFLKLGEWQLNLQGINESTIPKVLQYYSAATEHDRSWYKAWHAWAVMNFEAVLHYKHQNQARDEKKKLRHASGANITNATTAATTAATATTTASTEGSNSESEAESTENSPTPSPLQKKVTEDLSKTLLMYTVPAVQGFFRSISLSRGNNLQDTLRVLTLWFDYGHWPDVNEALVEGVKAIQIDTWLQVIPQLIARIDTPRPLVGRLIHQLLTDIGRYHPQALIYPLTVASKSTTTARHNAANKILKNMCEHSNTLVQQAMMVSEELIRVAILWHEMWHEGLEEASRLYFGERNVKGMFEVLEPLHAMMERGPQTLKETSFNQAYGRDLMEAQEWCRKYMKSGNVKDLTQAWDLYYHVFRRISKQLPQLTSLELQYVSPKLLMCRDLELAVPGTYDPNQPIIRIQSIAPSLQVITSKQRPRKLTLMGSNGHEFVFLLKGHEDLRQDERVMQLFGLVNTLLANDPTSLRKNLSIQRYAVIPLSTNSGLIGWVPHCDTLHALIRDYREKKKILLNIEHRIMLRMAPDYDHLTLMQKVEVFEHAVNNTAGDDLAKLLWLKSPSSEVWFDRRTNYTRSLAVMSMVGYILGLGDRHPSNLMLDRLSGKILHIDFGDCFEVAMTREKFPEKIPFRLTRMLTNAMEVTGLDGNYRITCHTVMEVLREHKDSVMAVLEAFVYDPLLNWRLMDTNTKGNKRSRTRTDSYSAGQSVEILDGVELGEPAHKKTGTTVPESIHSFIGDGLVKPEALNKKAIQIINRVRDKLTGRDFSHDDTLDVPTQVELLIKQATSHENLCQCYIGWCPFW
Chain of PI3K-γ (P48736 whole entry, species assumed): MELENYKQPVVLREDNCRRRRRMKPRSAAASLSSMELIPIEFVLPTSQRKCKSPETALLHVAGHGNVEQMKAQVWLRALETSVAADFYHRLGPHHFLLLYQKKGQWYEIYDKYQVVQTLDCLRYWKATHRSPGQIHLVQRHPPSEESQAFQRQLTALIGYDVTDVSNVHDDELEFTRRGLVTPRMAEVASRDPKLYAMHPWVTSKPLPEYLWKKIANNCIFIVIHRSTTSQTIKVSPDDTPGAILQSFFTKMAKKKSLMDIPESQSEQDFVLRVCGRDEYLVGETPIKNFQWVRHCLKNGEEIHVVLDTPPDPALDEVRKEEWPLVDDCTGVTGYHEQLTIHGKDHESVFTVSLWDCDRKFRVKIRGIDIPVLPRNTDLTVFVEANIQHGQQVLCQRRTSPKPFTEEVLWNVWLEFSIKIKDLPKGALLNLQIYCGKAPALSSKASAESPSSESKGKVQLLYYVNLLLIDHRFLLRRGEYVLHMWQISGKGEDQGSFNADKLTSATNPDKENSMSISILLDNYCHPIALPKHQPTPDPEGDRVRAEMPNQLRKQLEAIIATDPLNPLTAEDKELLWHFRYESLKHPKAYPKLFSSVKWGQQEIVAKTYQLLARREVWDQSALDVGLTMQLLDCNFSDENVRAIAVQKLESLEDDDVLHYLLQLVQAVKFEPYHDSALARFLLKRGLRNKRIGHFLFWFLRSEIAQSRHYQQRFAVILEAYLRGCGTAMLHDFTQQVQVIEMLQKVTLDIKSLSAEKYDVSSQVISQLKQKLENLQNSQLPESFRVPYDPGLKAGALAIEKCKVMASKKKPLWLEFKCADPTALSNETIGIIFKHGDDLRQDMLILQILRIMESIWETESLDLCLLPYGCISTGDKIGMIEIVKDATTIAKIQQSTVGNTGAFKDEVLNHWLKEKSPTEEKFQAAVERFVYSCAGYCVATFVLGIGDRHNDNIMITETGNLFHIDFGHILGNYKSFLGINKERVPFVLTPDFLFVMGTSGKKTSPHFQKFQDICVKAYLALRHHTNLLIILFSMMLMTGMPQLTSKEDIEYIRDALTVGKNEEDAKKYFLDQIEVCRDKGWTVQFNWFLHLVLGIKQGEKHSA

Usually IC50 stands for the midpoint of a concentration-inhibition curve. In the case of `COC(=O)Nc1ccc(-c2nc(-c3ccc(NC(=O)Nc4ccc(N5CCN(C)CC5)cc4)cc3)nc(N3CC4CCC(C3)O4)n2)cc1` [Example 145, methyl(4-{4-[4-({[4-(4-methylpiperazin-1-yl)phenyl]carbamoyl}amino)phenyl]-6-(8-oxa-3-azabicyclo[3.2.1]oct-3-yl)-1,3,5-triazin-2-yl}phenyl)carbamate], the 50% inhibitory concentration (IC50) in test [1] (read-out: IC50 PI3Kγ) is 1 µM; in test [2] it was 9 nM; in test [3], 120 nM; in test [4] (read-out: IC50 PI3Kα), 574 nM.

In the case of `CN1CCN(c2ccc(NC(=O)Nc3ccc(-c4nc(-c5ccc(NC(=O)Nc6ccc(N7CCN(C)CC7)cc6)cc5)nc(N5CC6CCC(C5)O6)n4)cc3)cc2)CC1` [Example 147, N′,N′″-{[6-(8-oxa-3-azabicyclo[3.2.1]oct-3-yl)-1,3,5-triazine-2,4-diyl]di-4,1-phenylene}bis{1-[4-(4-methylpiperazin-1-yl)phenyl]urea}], the 50% inhibitory concentration (IC50) was determined as 6.83 µM in test [1] (read-out: IC50 PI3Kγ), 6 nM in test [2], 1000 nM in test [3] and 1930 nM in test [4] (read-out: IC50 PI3Kα).

Consider `CN1CCN(c2ccc(NC(=O)Nc3ccc(-c4nc(-c5ccc(NC(=O)Nc6ccncc6)cc5)nc(N5CC6CCC(C5)O6)n4)cc3)cc2)CC1` [Example 148, 1-[4-(4-methylpiperazin-1-yl)phenyl]-3-{4-[4-(8-oxa-3-azabicyclo[3.2.1]oct-3-yl)-6-{4-[(pyridin-4-ylcarbamoyl)amino]phenyl}-1,3,5-triazin-2-yl]phenyl}urea], for which the concentration for half-maximal inhibition (IC50) amounted to 0.62 µM in test [1] (read-out: IC50 PI3Kγ), 8 nM in test [2], 680 nM in test [3] and 300 nM in test [4] (read-out: IC50 PI3Kα).

For the compound `NCCNc1nc(-c2ccc(NC(=O)Nc3cccnc3)cc2)nc(N2CC3CCC(C2)O3)n1` [Example 149, 1-(4-{4-[(2-aminoethyl)amino]-6-(8-oxa-3-azabicyclo[3.2.1]oct-3-yl)-1,3,5-triazin-2-yl}phenyl)-3-pyridin-3-ylurea], the 50% inhibitory concentration (IC50) in test [1] (read-out: IC50 PI3Kγ) was found to be 1.4 µM; in test [2], 80 nM; in test [3], 32000 nM; in test [4] (read-out: IC50 PI3Kα), 889 nM.

Consider `O=C(Nc1ccc(-c2nc(Nc3ccccc3)nc(N3CC4CCC(C3)O4)n2)cc1)Nc1cccnc1` [Example 150, 1-{4-[4-anilino-6-(8-oxa-3-azabicyclo[3.2.1]oct-3-yl)-1,3,5-triazin-2-yl]phenyl}-3-pyridin-3-ylurea], for which the IC50 in test [1] was greater than 10 µM; in test [2], 5 nM; in test [3], 290 nM; in test [4], 832 nM.

Consider `O=C(Nc1ccc(-c2nc(NC3CNC3)nc(N3CC4CCC(C3)O4)n2)cc1)Nc1cccnc1` [Example 154, 1-{4-[4-(azetidin-3-ylamino)-6-(8-oxa-3-azabicyclo[3.2.1]oct-3-yl)-1,3,5-triazin-2-yl]phenyl}-3-pyridin-3-ylurea], for which the IC50 in test [1] (read-out: IC50 PI3Kγ) stood at 3.82 µM; in test [2], 64 nM; in test [3] it was 22000 nM; in test [4] (read-out: IC50 PI3Kα) it was 275 nM.

On to `O=C(Nc1ccc(-c2nc(NCCN3CCOCC3)nc(N3CC4CCC(C3)O4)n2)cc1)Nc1cccnc1` [Example 155, 1-(4-{4-[(2-morpholin-4-ylethyl)amino]-6-(8-oxa-3-azabicyclo[3.2.1]oct-3-yl)-1,3,5-triazin-2-yl}phenyl)-3-pyridin-3-ylurea], for which the IC50 in test [1] (read-out: IC50 PI3Kγ) was 4.94 µM; in test [2] it was 16 nM; in test [3], 400 nM; in test [4] (read-out: IC50 PI3Kα), 2300 nM.

For `O=C(Nc1ccc(-c2nc(NN3CCN(C4CCCC4)CC3)nc(N3CC4CCC(C3)O4)n2)cc1)Nc1cccnc1` [Example 157, 1-(4-{4-[(4-cyclopentylpiperazin-1-yl)amino]-6-(8-oxa-3-azabicyclo[3.2.1]oct-3-yl)-1,3,5-triazin-2-yl}phenyl)-3-pyridin-3-ylurea], the IC50 in test [1] (read-out: IC50 PI3Kγ) worked out at 7.09 µM; in test [2] it was 170 nM; in test [3], 2700 nM; in test [4] (read-out: IC50 PI3Kα), 1450 nM.

Consider `CC(C)Oc1nc(-c2ccc(NC(=O)Nc3ccncc3)cc2)nc(N2CC3CCC(C2)O3)n1` [Example 158, 1-{4-[4-isopropoxy-6-(8-oxa-3-azabicyclo[3.2.1]oct-3-yl)-1,3,5-triazin-2-yl]phenyl}-3-pyridin-4-ylurea], for which the IC50 in test [1] (read-out: IC50 PI3Kγ) came to 1.29 µM; in test [2], 7 nM; in test [3] it was 49 nM; in test [4] (read-out: IC50 PI3Kα), 300 nM.

As to `CC(C)Oc1nc(-c2ccc(NC(=O)Nc3ccc(N4CCN(C)CC4)cc3)cc2)nc(N2CC3CCC(C2)O3)n1` [Example 159, 1-{4-[4-isopropoxy-6-(8-oxa-3-azabicyclo[3.2.1]oct-3-yl)-1,3,5-triazin-2-yl]phenyl}-3-[4-(4-methylpiperazin-1-yl)phenyl]urea], the IC50 in test [1] (read-out: IC50 PI3Kγ) came to 3.92 µM; in test [2], 2 nM; in test [3], 1.2 nM; in test [4] (read-out: IC50 PI3Kα) it was 133 nM.

As for `O=C(Nc1ccncc1)Nc1ccc(-c2nc(Cl)nc(N3CC4CCC(C3)O4)n2)cc1` [Example 160, 1-{4-[4-chloro-6-(8-oxa-3-azabicyclo[3.2.1]oct-3-yl)-1,3,5-triazin-2-yl]phenyl}-3-pyridin-4-ylurea], the IC50 in test [1] (read-out: IC50 PI3Kγ) amounted to 9.07 µM; in test [2] it was 7 nM; in test [3] it was 220 nM; in test [4] (read-out: IC50 PI3Kα), 358 nM.

As to `O=C(Nc1ccc(-c2nc(NCC3CCNCC3)nc(N3CC4CCC(C3)O4)n2)cc1)Nc1cccnc1` [Example 169, 1-(4-{4-(8-oxa-3-azabicyclo[3.2.1]oct-3-yl)-6-[(piperidin-4-ylmethyl)amino]-1,3,5-triazin-2-yl}phenyl)-3-pyridin-3-ylurea], the IC50 worked out at 7.96 µM in test [1] (read-out: IC50 PI3Kγ), 8.3 nM in test [2], 5000 nM in test [3] and 408 nM in test [4] (read-out: IC50 PI3Kα).

As to `O=C(Nc1ccc(-c2nc(NCCC3CCNCC3)nc(N3CC4CCC(C3)O4)n2)cc1)Nc1cccnc1` [Example 170, 1-(4-{4-(8-oxa-3-azabicyclo[3.2.1]oct-3-yl)-6-[(2-piperidin-4-ylethyl)amino]-1,3,5-triazin-2-yl}phenyl)-3-pyridin-3-ylurea], the half-inhibitory concentration (IC50) in test [1] (read-out: IC50 PI3Kγ) came to 9.5 µM; in test [2] it was 4 nM; in test [3] it was 4500 nM; in test [4] (read-out: IC50 PI3Kα) it was 384 nM.

With `CN1CCN(c2nc(-c3ccc(NC(=O)Nc4cccnc4)cc3)nc(N3CC4CCC(C3)O4)n2)C1` [Example 171, 1-{4-[4-(3-methylimidazolidin-1-yl)-6-(8-oxa-3-azabicyclo[3.2.1]oct-3-yl)-1,3,5-triazin-2-yl]phenyl}-3-pyridin-3-ylurea], the 50% inhibitory concentration (IC50) came out at 9.5 µM in test [1] (read-out: IC50 PI3Kγ), 1.2 nM in test [2], 5200 nM in test [3] and 300 nM in test [4] (read-out: IC50 PI3Kα).

Consider `COCC(COC)Oc1nc(-c2ccc(NC(=O)Nc3ccncc3)cc2)nc(N2CC3CCC(C2)O3)n1` [Example 174, 1-(4-{4-[2-methoxy-1-(methoxymethyl)ethoxy]-6-(8-oxa-3-azabicyclo[3.2.1]oct-3-yl)-1,3,5-triazin-2-yl}phenyl)-3-pyridin-4-ylurea], for which the IC50 was 0.727 µM in test [1] (read-out: IC50 PI3Kγ), 2.1 nM in test [2], 4.25 nM in test [3] and 861 nM in test [4] (read-out: IC50 PI3Kα).

Regarding `COCC(COC)Oc1nc(-c2ccc(NC(=O)Nc3ccc(N4CCN(C)CC4)cc3)cc2)nc(N2CC3CCC(C2)O3)n1` [Example 175, 1-(4-{4-[2-methoxy-1-(methoxymethyl)ethoxy]-6-(8-oxa-3-azabicyclo[3.2.1]oct-3-yl)-1,3,5-triazin-2-yl}phenyl)-3-[4-(4-methylpiperazin-1-yl)phenyl]urea], the IC50 was found to be 0.453 µM in test [1] (read-out: IC50 PI3Kγ), 4.8 nM in test [2], 9.5 nM in test [3] and 549 nM in test [4] (read-out: IC50 PI3Kα).

In the case of `COCC(COC)Oc1nc(-c2ccc(NC(=O)OCCO)cc2)nc(N2CC3CCC(C2)O3)n1` [Example 176, 2-hydroxyethyl (4-{4-[2-methoxy-1-(methoxymethyl)ethoxy]-6-(8-oxa-3-azabicyclo[3.2.1]oct-3-yl)-1,3,5-triazin-2-yl}phenyl)carbamate], the IC50 in test [1] (read-out: IC50 PI3Kγ) is 3.73 µM; in test [2], 22 nM; in test [3], 1000 nM; in test [4] (read-out: IC50 PI3Kα), 1120 nM.

In the case of `CNC(=O)Nc1ccc(-c2nc(OC(COC)COC)nc(N3CC4CCC(C3)O4)n2)cc1` [Example 177, 1-(4-{4-[2-methoxy-1-(methoxymethyl)ethoxy]-6-(8-oxa-3-azabicyclo[3.2.1]oct-3-yl)-1,3,5-triazin-2-yl}phenyl)-3-methylurea], the half-maximal inhibitory concentration (IC50) in test [1] (read-out: IC50 PI3Kγ) amounted to 4.12 µM; in test [2], 1.6 nM; in test [3], 600 nM; in test [4] (read-out: IC50 PI3Kα), 5840 nM.

Take `COCC(COC)Oc1nc(-c2ccc(NC(=O)NC3CC3)cc2)nc(N2CC3CCC(C2)O3)n1` [Example 178, 1-cyclopropyl-3-(4-{4-[2-methoxy-1-(methoxymethyl)ethoxy]-6-(8-oxa-3-azabicyclo[3.2.1]oct-3-yl)-1,3,5-triazin-2-yl}phenyl)urea]: the concentration for half-maximal inhibition (IC50) in test [1] is greater than 10 µM; in test [2], 14 nM; in test [3], 850 nM; in test [4], greater than 10000 nM.

`O=C(Nc1ccc(-c2nc(OCC3CCCNC3)nc(N3CC4CCC(C3)O4)n2)cc1)Nc1cccnc1` (stereo not drawn) [Example 180, 1-{4-[4-(8-oxa-3-azabicyclo[3.2.1]oct-3-yl)-6-(piperidin-3-ylmethoxy)-1,3,5-triazin-2-yl]phenyl}-3-pyridin-3-ylurea]: the IC50 in test [1] (read-out: IC50 PI3Kγ) was 8 µM; in test [2], 1.6 nM; in test [3], 5800 nM; in test [4] (read-out: IC50 PI3Kα) it was 531 nM.

Turning to `NCCCCOc1nc(-c2ccc(NC(=O)Nc3cccnc3)cc2)nc(N2CC3CCC(C2)O3)n1` [Example 181, 1-{4-[4-(4-aminobutoxy)-6-(8-oxa-3-azabicyclo[3.2.1]oct-3-yl)-1,3,5-triazin-2-yl]phenyl}-3-pyridin-3-ylurea], the 50% inhibitory concentration (IC50) in test [1] (read-out: IC50 PI3Kγ) stood at 6.73 µM; in test [2], 11 nM; in test [3], 3400 nM; in test [4] (read-out: IC50 PI3Kα), 426 nM.
